EC50, AC50 and CC50 data for 38 compounds are collected here from ChEMBL document CHEMBL1201862, “PubChem BioAssay data set” (2004).

SMILES strings stand for the structures. Active and inactive are the calls of the source.

Assay [1] is described as follows: cells. The assay is classed as functional, cell-based.
The nature of assay [2]: cells. The assay is classed as functional, cell-based. This is another data set of the same source.
Assay [3] can be described thus: inhibitors of SNCA 5'UTR-driven reporter translation, confirmation, H4 neuroglioma cells, luminescence (AID 1988). It counts as functional, cell-based.
A short description of assay [4]: Luminescence Cell-Based Dose Response HTS to Identify Inhibitors of 5'UTR Stem-Loop Driven Prion Protein mRNA Translation in H4 Neuroglioblastoma Cells. [Related pubchem assays: 1827 (Project Summary), 1813 (Primary HTS)]. The assay is classed as functional.
The nature of assay [5]: inhibitors of firefly luciferase expression or activity, dose response, H4 neuroglioma cells, luminescence (AID 1990). The assay is classed as functional, cell-based.
The next assay has as its target Cytochrome P450 2D6 (Homo sapiens, UniProt P10635).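 Note: CYP2D6 member of a cytochrome P450 panel assay.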
Another assay has as its target Cytochrome P450 2C19 (Homo sapiens, UniProt P33261). As to the kind of experiment: Cytochrome panel assay with activity outcomes. Panel member name: p450-cyp2c19 Compounds with AC50 equal or less than 10 uM are considered active. The settings on record: read-out: AC50. The assay is classed as functional.
In the next assay the target is Cytochrome P450 2C9 (Homo sapiens, UniProt P11712).
A short description of assay [6]: Luminescence Cell-Based Dose Response HTS to Identify Activators of Luciferase Translation or Activity in H4 […] Cells. [Related pubchem assays: 1829 (Project Summary), 1814 (Primary HTS)]. The assay is classed as functional.
The target of the next assay is T1, Cytochrome P450 1A2 (Homo sapiens, UniProt P05177).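 Note: PubChem cytochrome P450 panel assay, CYP1A2 panel member.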
T1 sequence (P05177 whole entry): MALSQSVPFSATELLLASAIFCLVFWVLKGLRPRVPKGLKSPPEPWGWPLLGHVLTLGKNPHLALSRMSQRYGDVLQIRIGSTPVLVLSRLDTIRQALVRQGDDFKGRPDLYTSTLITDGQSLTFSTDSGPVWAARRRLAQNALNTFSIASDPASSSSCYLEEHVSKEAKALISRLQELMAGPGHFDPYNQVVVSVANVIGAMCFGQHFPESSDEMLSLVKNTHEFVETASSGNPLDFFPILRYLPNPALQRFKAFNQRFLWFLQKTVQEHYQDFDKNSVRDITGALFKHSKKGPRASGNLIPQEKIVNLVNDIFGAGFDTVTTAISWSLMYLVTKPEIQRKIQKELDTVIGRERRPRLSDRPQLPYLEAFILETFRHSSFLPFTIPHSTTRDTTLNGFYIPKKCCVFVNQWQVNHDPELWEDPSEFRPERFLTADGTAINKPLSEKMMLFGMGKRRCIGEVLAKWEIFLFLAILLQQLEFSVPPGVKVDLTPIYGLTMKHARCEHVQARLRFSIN

A further assay deals with Cytochrome P450 3A4 (Homo sapiens, UniProt P08684).
In a further assay the test system is INS1. The experiment in a line: beta cell apoptosis inhibitors, cytokine rescue, dose response, luminescence, retest (AID 449756).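 Note: cell death triggered by IL-1 beta plus TNF-alpha plus IFN-gamma mixture; protective hits raise ATP signal compared with cytokine alone wells.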 The assay is classed as functional, cell-based. Particulars: Rattus norvegicus.
Assay [7] in a line: cytotoxicity toward NIH3T3 fibroblasts, dose response, counter-screen, cell-based, ATP luminescence, mouse fibroblasts (AID 2010).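 Note: cells exposed to compound for about 90 hours before reading.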 The assay is classed as functional.
The nature of assay [8]: inhibitors of intracellular T. cruzi replication, confirmation, NIH3T3 host cells, beta-gal luminescence (AID 2044).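 Note: intracellular parasites grown in NIH/3T3 mouse fibroblasts as host cells; luminescent beta-galactosidase reporter signal from transgenic T. cruzi replicating inside host cells; inhibitors lower the luminescence signal.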 It counts as functional, cell-based.
Assay [9] is described as follows: HEp-2 cell cytotoxicity, dose response, cytotoxicity control for RSV inhibitor project, HTS (AID 2410). The settings on record: human respiratory syncytial virus. The assay is classed as functional.
A short description of assay [10]: growth suppression of PTEN-null colon cells, dose response, cell-based, HCT116 PTEN knockout (AID 1047).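 Note: HCT116 colon tumor cells with PTEN knocked out; cells exposed to compound for 60 hours before readout; potency for loss of cell viability measured by luminescence.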 It counts as functional.
A short description of assay [11]: P. falciparum Dd2 growth inhibitors, dose response, SYBR Green, cherry-picked samples (AID 1159567). The assay is classed as functional, cell-based.

Cytochrome P450 2C9, sequence (P11712 whole entry): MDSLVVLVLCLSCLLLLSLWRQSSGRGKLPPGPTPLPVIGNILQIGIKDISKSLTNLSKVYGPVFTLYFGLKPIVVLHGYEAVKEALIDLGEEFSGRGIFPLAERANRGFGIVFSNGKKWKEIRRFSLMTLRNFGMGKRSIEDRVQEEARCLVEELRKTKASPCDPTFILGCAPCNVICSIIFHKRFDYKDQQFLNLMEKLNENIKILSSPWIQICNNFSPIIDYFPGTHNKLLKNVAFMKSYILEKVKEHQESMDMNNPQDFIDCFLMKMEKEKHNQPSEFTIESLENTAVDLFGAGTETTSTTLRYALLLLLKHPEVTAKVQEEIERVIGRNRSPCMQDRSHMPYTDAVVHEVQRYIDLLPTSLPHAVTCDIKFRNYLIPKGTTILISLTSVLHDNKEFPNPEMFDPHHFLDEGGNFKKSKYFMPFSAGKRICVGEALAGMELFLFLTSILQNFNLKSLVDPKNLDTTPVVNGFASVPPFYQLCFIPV
Cytochrome P450 2C19, sequence (P33261 whole entry): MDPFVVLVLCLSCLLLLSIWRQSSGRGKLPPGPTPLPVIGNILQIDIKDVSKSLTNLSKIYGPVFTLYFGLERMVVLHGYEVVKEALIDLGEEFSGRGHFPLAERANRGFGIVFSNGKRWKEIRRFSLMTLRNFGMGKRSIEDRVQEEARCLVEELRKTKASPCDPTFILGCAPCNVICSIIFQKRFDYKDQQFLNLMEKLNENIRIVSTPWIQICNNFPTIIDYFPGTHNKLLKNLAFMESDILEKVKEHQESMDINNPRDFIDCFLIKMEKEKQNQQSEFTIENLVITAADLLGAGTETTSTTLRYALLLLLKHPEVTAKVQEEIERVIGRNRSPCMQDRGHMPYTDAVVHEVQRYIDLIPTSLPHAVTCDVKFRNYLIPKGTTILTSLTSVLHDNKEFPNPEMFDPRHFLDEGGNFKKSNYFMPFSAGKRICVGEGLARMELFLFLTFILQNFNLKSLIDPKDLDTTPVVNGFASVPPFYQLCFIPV
Cytochrome P450 2D6, sequence (P10635 whole entry): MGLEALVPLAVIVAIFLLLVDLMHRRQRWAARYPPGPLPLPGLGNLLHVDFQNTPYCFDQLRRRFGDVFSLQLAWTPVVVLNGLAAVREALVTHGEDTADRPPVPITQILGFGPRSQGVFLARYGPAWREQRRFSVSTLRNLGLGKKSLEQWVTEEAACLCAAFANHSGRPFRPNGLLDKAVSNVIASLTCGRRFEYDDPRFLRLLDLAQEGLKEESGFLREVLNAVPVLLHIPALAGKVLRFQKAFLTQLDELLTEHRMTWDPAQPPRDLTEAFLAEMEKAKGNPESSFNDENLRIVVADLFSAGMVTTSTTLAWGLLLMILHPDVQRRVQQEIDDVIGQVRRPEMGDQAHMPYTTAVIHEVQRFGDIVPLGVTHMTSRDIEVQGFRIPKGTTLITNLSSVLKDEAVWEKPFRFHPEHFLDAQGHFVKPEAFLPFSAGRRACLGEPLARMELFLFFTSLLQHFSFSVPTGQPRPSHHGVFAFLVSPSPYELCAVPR
Cytochrome P450 3A4, sequence (P08684 whole entry): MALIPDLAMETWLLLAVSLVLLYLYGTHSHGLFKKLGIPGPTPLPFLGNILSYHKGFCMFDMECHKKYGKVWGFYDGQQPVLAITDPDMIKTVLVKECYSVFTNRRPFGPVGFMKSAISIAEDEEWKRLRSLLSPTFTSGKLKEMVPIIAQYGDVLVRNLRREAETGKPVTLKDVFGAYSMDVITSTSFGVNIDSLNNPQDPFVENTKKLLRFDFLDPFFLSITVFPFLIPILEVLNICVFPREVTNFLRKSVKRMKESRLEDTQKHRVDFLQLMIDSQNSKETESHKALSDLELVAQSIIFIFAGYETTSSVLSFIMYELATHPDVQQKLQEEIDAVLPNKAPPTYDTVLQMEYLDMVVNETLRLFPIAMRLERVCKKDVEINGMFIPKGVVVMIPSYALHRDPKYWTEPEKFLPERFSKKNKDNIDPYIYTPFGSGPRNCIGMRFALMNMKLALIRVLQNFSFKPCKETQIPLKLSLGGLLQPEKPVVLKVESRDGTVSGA

Take `Cc1ccc(-c2csc3nc(SCC(=O)N(C)C)n(Cc4ccccc4)c(=O)c23)cc1`: the EC50 in “cells [1]” and in the assay “cells [2]” was > 350 µM (not active) throughout.
On to `CCCNC(=O)c1ccc(N2CCC3(CC2)CC(c2ccccc2)=NO3)c(NC(=O)c2ccccc2)c1`, for which the concentration for a half-maximal effect (EC50) (commonly the midpoint of the concentration-response curve) in assay [3] is 12.7 µM (active); in [4] it was > 120 µM (not active); in assay [5] it was 18.7 µM (active).
As to `NCCSCCc1ccccc1`, the AC50 on Cytochrome P450 2D6 and on Cytochrome P450 2C19 was 3.16 µM (inconclusive) throughout.
`Nc1c(S(=O)(=O)c2cccs2)c2nc3ccccc3nc2n1Cc1ccccc1`: the EC50 in assay [3] was > 120 µM (not active); in assay [4], > 120 µM (not active); in assay [5], 20.7 µM (active).
Regarding `COc1ccc(CC(NC(C)=O)C(=O)NC2CCN(C(=O)Nc3ccc(Cl)cc3)CC2)cc1OC` (stereo unspecified), the 50% effective concentration (EC50) in “cells [1]” and in “cells [2]” was > 350 µM (not active) in each case. Also, the concentration at half-maximal activity (AC50) (as a rule, the midpoint of the concentration-response curve, whichever way the signal moves) on Cytochrome P450 2C9 was 12.6 µM (inconclusive).
As to `CCc1ccc(-c2ccc(C(=O)C(F)(F)F)[nH]2)cc1`, in assay [6], the concentration giving a half-maximal response (EC50) was 0.19 µM (active). Further, on Cytochrome P450 2C19, the AC50 is 5.01 µM (inconclusive).
In the case of `COc1cc2c(cc1OC)-c1c/c(=N/c3c(C)cc(C)cc3C)n(C)c(=O)n1CC2`, the AC50 on Cytochrome P450 2D6 and at Cytochrome P450 2C19 was 31.6 µM (inconclusive) throughout.
Regarding `COc1cccc(Cn2c(=O)c(-c3ccccc3)nc3cnc(N4CCNCC4)nc32)c1`, the AC50 at Cytochrome P450 2D6 is 10 µM (inconclusive); on Cytochrome P450 2C19, 39.8 µM (inconclusive); at Cytochrome P450 1A2, 3.16 µM (inconclusive).
Turning to `COc1ccc(C(=O)Nc2ccc(C(=O)NCCc3ccc(OC)c(OC)c3)cc2)cc1`, the EC50 in “cells [1]” and in the assay “cells [2]” was > 350 µM (not active) each time.
`Cc1ccc(C(=O)C2C(=O)c3ccccc3C2=O)cc1`: the AC50 was 22.4 µM (inconclusive) at Cytochrome P450 2C19 and 25.1 µM (inconclusive) at Cytochrome P450 1A2.
For `CS(=O)(=O)Nc1cccc(-c2cc(NCc3ccccc3)ncn2)c1`, the figures for the AC50 at Cytochrome P450 2D6 and at Cytochrome P450 2C19 were 31.6 µM (inconclusive) and 39.8 µM (inconclusive), respectively.
In the case of `Clc1c(CSc2nc3ccccc3o2)nc2sccn12`, the EC50 was 21 µM (active) in “cells [1]” and > 350 µM (not active) in “cells [2]”.
`CN1C(=O)C(=C(N)COc2ccccc2)C(=O)N(C)C1=O`: the AC50 at Cytochrome P450 2C19 was 15.8 µM (inconclusive); on Cytochrome P450 2C9, 14.1 µM (inconclusive).
In the case of `CCN(CCN(C)C)C(=O)C1CCN(S(=O)(=O)c2c(C)noc2/C=C/c2ccccc2F)CC1`, the values for the EC50 in the assay “cells [1]” and in “cells [2]” were 21.2 µM (active) and > 350 µM (not active), respectively.
For `c1ccc(-c2csc3ncn4cnnc4c23)cc1`, the half-maximal activity concentration (AC50) was 11.2 µM (inconclusive) on Cytochrome P450 2C19, 0.251 µM (inconclusive) on Cytochrome P450 1A2 and 20 µM (inconclusive) on Cytochrome P450 2C9.
Take `CCC1CCCCN1CCCNC(=O)C1CCN(c2nnc(-n3cccc3)s2)CC1` (stereo unspecified): the EC50 in the assay “cells [1]” and in the assay “cells [2]” was > 350 µM (not active) each time.
As for `O=C(C1CC12CCCC2)N1CCC(CO)(Cc2ccccc2Cl)CC1` (stereo unspecified), the EC50 in assay [3] is > 120 µM (not active); in [4] it was 120 µM (active); in assay [5], 19 µM (active).
`Cc1ccc(-n2c(SCC(=O)N3CCOCC3)nnc2-c2cccnc2)cc1`: the AC50 on Cytochrome P450 3A4 was 10 µM (inconclusive); on Cytochrome P450 2C19, 22.4 µM (inconclusive); on Cytochrome P450 1A2 it was 10 µM (inconclusive); at Cytochrome P450 2C9, 17.8 µM (inconclusive).
Turning to `O=C(NNC(=O)c1cccnc1SCc1cccc([N+](=O)[O-])c1)c1ccc(F)cc1`, the half-maximal activity concentration (AC50) in the assay on INS1 is 7.02 µM (active).
On to `Cn1c(=O)c(CCc2ccccc2)nc2cncnc21`, for which the half-maximal activity concentration (AC50) is 15.8 µM (inconclusive) at Cytochrome P450 3A4, 39.8 µM (inconclusive) at Cytochrome P450 2C19 and 31.6 µM (inconclusive) on Cytochrome P450 2C9.
For `COc1ccc(F)cc1CSc1nnnn1-c1ccc(O)cc1`, the EC50 in “cells [1]” and in the assay “cells [2]” was > 350 µM (not active) throughout.
Regarding `Cc1ccc(C[n+]2cccc(-c3ccccc3)c2)c(C)c1`, the EC50 is 11.9 µM (active) in assay [7] and 0.552 µM (active) in assay [8]. The AC50 with INS1 was 4.24 µM (active).
Regarding `COc1ccccc1N1CCN(Cc2c[nH]c3ccccc23)CC1`, the EC50 is > 60 µM (not active) in [7]; > 120 µM (not active) in assay [3]; 25.3 µM (active) in [4]; 2.1 µM (active) in [8]; > 120 µM (not active) in [5].
Take `CC(N=C(S)NC1CCCCC1)c1ccc(C(C)(C)C)cc1` (stereo unspecified): the AC50 with INS1 is 6.14 µM (active).
On to `CCN(CC)C(=O)CCCOc1ccc(Cl)cc1Cl`, for which the CC50 (commonly the concentration at which the toxic effect on the cells reaches its halfway point) in assay [9] is 22.1 µM (active). The EC50 in [10] is 137 µM (active).
Regarding `O=C1CCCc2c1[nH]c1ccc(Br)cc21`, the EC50 in [3] is 9.02 µM (active); in assay [4], 86.4 µM (active); in assay [5], < 0.1 µM (active).
Consider `COc1cccc(C2=NOC(C(=O)NCc3ccccn3)C2)c1` (stereo unspecified), for which the figures for the AC50 on Cytochrome P450 3A4 and at Cytochrome P450 2C19 were 15.8 µM (inconclusive) and 25.1 µM (inconclusive), respectively.
As for `CN(C)C(=O)c1ccc(NC(=O)c2cccc(S(=O)(=O)N3CCCCCC3)c2)cc1`, the AC50 with INS1 was > 260 µM (inactive).
Consider `Cc1ccc(Oc2nc(-c3ccccc3)ncc2S(C)(=O)=O)cc1`, for which the concentration at half-maximal activity (AC50) was 14.1 µM (inconclusive) on Cytochrome P450 3A4 and 3.16 µM (inconclusive) on Cytochrome P450 2C19.
With `COC(=O)[C@H](CC(C)C)N(Cc1ccccc1)S(=O)(=O)N(Cc1ccccc1)[C@@H](CC(C)C)C(=O)OC`, the half-maximal activity concentration (AC50) in the assay with INS1 is 13.7 µM (active).
In the case of `CCOc1cc(/C=N/NC(=O)c2cccnc2)ccc1OCc1ccc(C(=O)OC)o1`, the concentration for a half-maximal effect (EC50) in the assay “cells [1]” and in the assay “cells [2]” was > 350 µM (not active) each time.
Regarding `N#Cc1ccc(-c2ccc([C@H]3[C@@H](CO)N4C(=O)CN(C(=O)Cc5ccccc5)C[C@@H]34)cc2)cc1`, the concentration at half-maximal activity (AC50) in assay [11] is 18.1 µM (active).
The same measure, in the same setting: next, `CCC(=O)N1CC2(C1)CN(S(=O)(=O)c1ccccc1)[C@@H](CO)c1[nH]c3cc(OC)ccc3c12`: 5.43 µM (active).
The same measure, in the same setting: the figure for `CO[C@@H]1CN(C)C(=O)c2ccc(NC(=O)c3cc(C)on3)cc2OC[C@@H](C)N(S(=O)(=O)c2cccc(C)c2)C[C@H]1C` is 4.07 µM (active); for `C[C@@H]1CN([C@@H](C)CO)C(=O)c2cccc(NC(=O)c3cnccn3)c2O[C@@H]1CN(C)Cc1ccc(C(F)(F)F)cc1` it is 9.12 µM (active).
Same read-out and setting: next, `C[C@@H]1CN([C@@H](C)CO)C(=O)c2c(c3ccccc3n2C)-c2ccccc2CO[C@H]1CN(C)C(=O)Nc1ccccc1C(F)(F)F`: 4.33 µM (active); `CO[C@H]1CN(C)C(=O)c2cc(NC(=O)c3nc4ccccc4s3)ccc2OC[C@H](C)NC[C@@H]1C`: 13.5 µM (active).
As to `CC(C)(C)NC(=O)N1c2ccccc2Sc2ccccc21`, the figures for the concentration giving a half-maximal response (EC50) in assay [3], in [4] and in assay [5] were 112 µM (active), > 120 µM (not active) and 15.3 µM (active), respectively.
